In PMC3280214, “Structure Based Discovery of Small Molecules to Regulate the Activity of Human Insulin Degrading Enzyme” (PLoS ONE, 2012):

What was measured:
IDE = biological target: T1, IDE (Homo sapiens, UniProt P14735); experiment: FAβB (amyloid-β) degradation assay; format: biochemical; conditions: 20 µM compound
T1 construct: made in house; host or cells: E. coli BL21
T1 sequence (P14735 1-1019): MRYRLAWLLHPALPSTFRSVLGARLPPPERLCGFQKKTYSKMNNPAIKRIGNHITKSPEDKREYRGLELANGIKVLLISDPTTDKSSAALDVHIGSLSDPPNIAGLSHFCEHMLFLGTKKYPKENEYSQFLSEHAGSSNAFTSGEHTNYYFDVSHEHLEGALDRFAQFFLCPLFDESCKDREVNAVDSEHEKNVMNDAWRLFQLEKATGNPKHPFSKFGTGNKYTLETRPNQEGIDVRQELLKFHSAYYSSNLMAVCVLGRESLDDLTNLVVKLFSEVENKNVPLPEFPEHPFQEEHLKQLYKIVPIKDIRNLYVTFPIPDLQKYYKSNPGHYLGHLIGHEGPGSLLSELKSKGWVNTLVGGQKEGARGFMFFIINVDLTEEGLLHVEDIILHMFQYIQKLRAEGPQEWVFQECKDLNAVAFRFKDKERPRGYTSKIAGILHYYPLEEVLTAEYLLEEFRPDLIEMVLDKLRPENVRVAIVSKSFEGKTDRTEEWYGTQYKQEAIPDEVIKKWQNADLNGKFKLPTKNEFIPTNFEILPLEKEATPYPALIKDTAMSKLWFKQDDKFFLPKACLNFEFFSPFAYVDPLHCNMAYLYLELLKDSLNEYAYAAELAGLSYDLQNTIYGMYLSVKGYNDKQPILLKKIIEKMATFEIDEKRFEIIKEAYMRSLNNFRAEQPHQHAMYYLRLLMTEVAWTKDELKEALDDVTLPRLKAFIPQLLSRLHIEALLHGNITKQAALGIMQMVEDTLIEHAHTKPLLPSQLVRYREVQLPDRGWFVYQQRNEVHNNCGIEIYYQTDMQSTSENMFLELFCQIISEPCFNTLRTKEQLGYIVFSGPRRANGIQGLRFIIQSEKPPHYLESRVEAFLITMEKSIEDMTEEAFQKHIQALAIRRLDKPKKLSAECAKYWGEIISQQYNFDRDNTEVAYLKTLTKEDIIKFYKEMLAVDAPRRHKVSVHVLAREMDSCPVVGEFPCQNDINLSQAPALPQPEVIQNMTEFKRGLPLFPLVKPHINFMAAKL
Experimental: The 10 compounds given in Table 1 were subjected to further characterization and their effect was measured on the proteolytic activity of IDE using different substrates. Initially, activity assays were carried out at fixed 20 µM concentrations for all molecules to identify the effect of those compounds on IDE activity. IDE activity was quantified by monitoring the change in fluorescence for the proteolysis of fluorogenic-substrate V, FITC- insulin-bound antibody, and FAβB by recombinant human IDE purified from E.coli BL21 [6], [18], [19]. […] Also, D6 increased the amyloid-β degradation by 20% (Fig. S1C). Further, D10 enhanced IDE-mediated FITC-insulin-mAb and substrate V degradation by 290% and 65%, respectively (Fig. S1A, B). Next, an EC50 value of each molecule that enhanced IDE activity was determined with a dose response assay, where specific activity of IDE was measured with different concentrations of the lead compounds and then the plot was fit to Sigmoidal Hill-4 parameter equation. […] EC50 value for D3 on insulin degradation was approximately measured as 20 µM (Fig. S2C), whereas EC50 value for D6 on amyloid-β degradation was 2 µM (Fig. S2D). […] Among all these four compounds, D10 seems to be the potent activator of IDE, when proteolysis of insulin is considered.
This assay was performed as follows: 10 µl of 50 nM of FAβB was dissolved in a buffer which consisted of 50 mM HEPES, 100 mM NaCl, % 0,05 (v/v) bovine serum albumin, at a pH of 7.4. The reaction was initiated in a total volume of 100 µl with 20 µM drugs by adding 20 µl of 0.02 mg/ml of IDE for 2.5 h at 37°C. The reaction was stopped by adding 2 µl of 100 mM of protease inhibitor (1, 10-phenanthroline). Uncleaved FAβB was precipitated with Neutravidin- coated agarose beads by gentle rocking for 30 min. and centrifugation for 10 min at 14000 g. The supernatant was transferred to the black 96 well plates and increase in fluorescence (488 excitation, 525 emission) was measured with a multi-label plate reader.
The effect of the lead compounds on the initial rate of proteolysis of IDE was determined by measurement in fluorescence with time both in the presence and absence of the lead compounds. The kinetic data for IDE-mediated insulin, substrate V and amyloid-β degradation were plotted and fitted using SigmaPlot software (Sigmoidal, Hill, 4 parameter). For the initial rate calculations, kinetic data were fitted using SigmaPlot software (Hyperbola; Single Rectangular I, 3 Parameter).

HeLa cells = experiment: MTT assay for cell viability; format: cell-based, human; conditions: 24 h; for cytotoxicity at high concentrations: 1 to 100 µM
Description: We characterized the activity of novel compounds in a cellular assay to establish whether there were any cytotoxic effects. We used an established MTT (3-(4,5-dimethylthiazolyl-2)-2, 5-diphenyltetrazolium bromide or thiazolyl blue) method using HELA cells to determine whether the small molecule affects cell viability. In this method, a purple formazan dye forms as a result of the cleavage of the yellow tetrazolium MTT within metabolically active cells. The resulting precipitate of the intracellular formazan can be dissolved in a detergent solution and quantified spectrophotometrically at 595 nm. We measured the cytotoxicity by incubating HELA cells in the presence of novel compounds at concentrations ranging from 1 to 100 µM for 24 h. Cell viability was measured using the MTT method after […] culture. The extent of cell death was expressed relative to a control containing DMSO. […] Therefore, as a next step we tested the effects of lead compounds on insulin catabolism using HeLa cells.
The cytotoxicity assay was performed using human cervical cancer HeLa cells. Cells were cultured at 37°C under a humidified atmosphere of 5% CO2 in medium supplemented with 10% fetal bovine serum and dispersed in replicate 96-well plates with 2.5×10^4 cells/well. Compounds were then added. After 24 hours exposure to the chemical compounds, the cell viability was determined by 3-[4,5-dimethylthiazol-2-yl]-2,5-diphenpyltetrazolium bromide (MTT) assay. The optical density (OD) of the wells was determined using ELISA plate reader at a test wavelength of 600 nm and a reference wavelength of 630 nm. Each measurement was carried out in triplicate.

SMILES | effect on proteolysis activity of IDE for amyloid-β (IDE) | cytotoxicity at high concentrations (HeLa cells) | cell viability (HeLa cells; 7.5 µM) | cell viability (HeLa cells; 100 µM) [%]
COc1ccc(C2C(C(=O)Nc3ccccc3)=C(C)N=c3sc(=Cc4cn(C)nc4C)c(=O)n32)cc1 (stereo not shown) [Compound D3] | did not have any effect | did not demonstrate any toxicity |  | 
Nc1c(C(=O)Nc2ccccc2F)c2ccccn2c1C(=O)c1ccc2c(c1)CCCC2 [Compound D4] | did not have any effect |  | approximately 85% | 60
Cc1nn(-c2ccccc2)c2nc(-c3cccc([N+](=O)[O-])c3)n3c4ccccc4nc3c2c1=O [Compound D10] | did not have any effect | did not demonstrate any toxicity |  | 
